In patent US5126341A, “Anti-inflammatory 1,8-naphthyridin-2-one derivatives” (Kyowa Hakko Kogyo Co., Ltd., priority 1990, dated 1992):
Like-named read-outs stand apart in the source and are kept apart here.

Legend:
[1] = test system: carrageenin-induced paw edema; assay: Effect on carrageenin-induced paw edema; assay type: in vivo, male Wistar rats; settings: po; rat, 100 mg/kg p.o., 1 hour before 1% carrageenin; paw volume 3 hours after injection; read-out: Suppression rate for paw swelling, (a) carrageenin-induced edema
Description: a) Effect on carrageenin-induced paw edema
Male Wistar rats weighing 150 to 160 g (n=3-5) were used in the experiment. After the right hind paw volume was measured with the plethysmograph (TK-101; Unicom Co., Ltd.), the test compound (100 mg/kg) was orally administered. After one hour, 0.1 ml of 1 % carrageenin (λ-carrageenin; PICNIN-A®, Zushi Kagaku Co., Ltd.) was subcutaneously injected into the right hind paw footpad. Three hours after the injection of carrageenin, the right hind paw volume was measured and the swelling rate was determined by the following equation 1. [formula]
Vt: the right hind paw volume measured 3 hours after the injection of carrageenin
Vo: the right hind paw volume measured prior to the injection of carrageenin
The suppression rate was calculated by the following equation 2. [formula]
Swt: the swelling rate of the group administered with the test compound
Swc: the swelling rate of the control group administered with no test compound

[2] = test system: zymosan-induced paw edema; assay: Effect on zymosan-induced paw edema; assay type: in vivo, male Wistar rats; settings: rat, 100 mg/kg p.o., 1 hour before 1% zymosan; paw volume 4 hours after injection
Description: b) Effect on zymosan-induced paw edema
(§1) The experiment was carried out in the same manner as in the carrageenin-induced paw edema test except that 1% zymosan (Zymosan A®; Sigma Chemical Co.) was used in place of 1% carrageenin and the right hind paw volume was measured 4 hours after the injection of the edema-inducing substance instead of 3 hours. The swelling rate and the suppression rate were calculated by equation 1 and equation 2, respectively.

[3] = test system: arachidonic acid-induced paw edema; assay: Arachidonic acid-induced paw edema; assay type: in vivo, male Wistar rats; settings: rat, 100 mg/kg p.o., 1 hour before 0.5% arachidonic acid; paw volume one hour after injection
Description: c) Arachidonic acid-induced paw edema
as §1, with “0.5% arachidonic acid” for “1% zymosan (Zymosan A®; Sigma Chemical Co.)”, “one hour” for “4 hours”

[4] = test system: Type III allergic reaction-induced pleurisy; assay: Effect on Type III allergic reaction-induced pleurisy; assay type: in vivo, male Wistar rats; settings: po, 4.5 h, rat, 100 mg/kg p.o., four and a half hours after induction of pleurisy
Description: d) Effect on Type III allergic reaction-induced pleurisy
IgG was purified from rabbit anti-OA serum prepared in advance by the method of Koda et al. [Folia Pharmacol., Japon 66, 237, (1970)] in the following manner.
A saturated solution of ammonium sulfate (half volume of the serum) was added to the anti-OA serum, and the mixture was left for one hour at 4° C. The precipitate was taken by centrifugation (3,000 rpm, 30 min, 4° C.) and dissolved in phosphate buffered saline of Dulbecco. Then, ammonium sulfate fractionation was carried out three times in the same manner as above, whereby a purified IgG fraction was obtained.
Male Wistar rats weighing 225-250 g were pre-bred for several days and fasted overnight prior to the experiment The test compound (100 mg/kg) was orally administered to the animals, and after 30 minutes, IgG of rabbit anti-OA (0.2 ml, 5 mg protein/ml) was injected into the pleural cavity of the animals under anesthesia with ether. Thirty minutes after the injection of IgG, OA (albumin egg grade III; Sigma Chemical Co.) was intravenously injected into the animals as an inducer of pleurisy. After two hours, Evans Blue (25 mg/kg) was intravenously injected, and four and a half hours after the induction of pleurisy, the animals were killed by bleeding.
Then, an exudate in the pleural cavity was obtained, and the volume of the exudate was measured. The pleural cavity was rinsed with 5 ml of physiological saline and the rinsings were added to the exudate. The number of infiltrated cells in the mixture was counted and the volume of the dye in the mixture was determined by the absorption at 625 nm [Agent Actions., 25, 326 (1988)]. The suppression rates for the volume of the exudate, the number of infiltrated cells and the volume of the dye in the pleural cavity were calculated by the following equation 3. [formula]
S.V: the value obtained with the group administered with the test compound and in which pleurisy is induced
N.V: the value obtained with the group in which pleurisy is not induced
P.V: the value obtained with the group administered with no test compound and in which pleurisy is induced

male dd-mice = settings: mouse, in vivo, 10080 min; for Acute toxicity (MLD, Minimum Lethal Dose) i.p.: ip; for Acute toxicity (MLD, Minimum Lethal Dose) p.o.: po
Description: The test compounds were orally or intraperitoneally administered to male dd-mice weighing 20 to 25 g. MLD (Minimum Lethal Dose) was determined by observing the mortality for seven days after the administration.

[5] = Evans Blue 25 mg/kg i.v., absorption at 625 nm, read-out: Suppression rate, volume of dye in the exudate
[6] = read-out: Suppression rate, number of infiltrated cells in the exudate
[7] = read-out: Suppression rate, volume of exudate

Structure (SMILES) | inhibition in vivo at 100 mg/kg [1] | Suppression rate for paw swelling, (b) zymosan-induced edema [2] | Suppression rate for paw swelling, (c) arachidonic acid-induced edema [3] | inhibition in vivo at 100 mg/kg [4, 5] | inhibition in vivo at 100 mg/kg [4, 6] | inhibition in vivo at 100 mg/kg [4, 7] | Acute toxicity (MLD, Minimum Lethal Dose) i.p. (male dd-mice) | Acute toxicity (MLD, Minimum Lethal Dose) p.o. (male dd-mice)
O=C(Nc1cccnc1)c1c(O)c2cccnc2n(-c2ccccc2)c1=O [Compound 4, 4-Hydroxy-2-oxo-1-phenyl-N-(3-pyridyl)-1H-1,8-naphthyridine-3-carboxamide] | 40% | 37.8% | 34.9% | 54.4% | 30.5% | 75.3% | > 100 mg/kg | > 300 mg/kg
O=C(Nc1ccncc1)c1c(O)c2cccnc2n(-c2ccccc2)c1=O [Compound 5, 4-Hydroxy-2-oxo-1-phenyl-N-(4-pyridyl)-1H-1,8-naphthyridine-3-carboxamide] | 38.5% | 38.4% | 48.0% | 66.5% | 58.6% | 100% | > 100 mg/kg | 300 mg/kg
